Test results: patent publication US5567692A, “9-[(substituted glycyl) amido)]-6-demethyl-6-deoxytetracyclines” (priority 1995, dated 1996)
Values after ≈ are worked out from the molar mass of the structure shown. Read-outs that look alike come from different tables or passages of the source.

Tests used:
E. coli J3272 Tet sens = test: MIC, agar dilution; type: cell-based; conditions: Escherichia coli, J3272TETSENS, 18 h
E. coli J3272 Tet C = test: microbe, parasite or virus in culture; type: cell-based; conditions: Escherichia coli, J3272TETC, 18 h
E. coli UBMS 90-5 = test: microbe, parasite or virus in culture; type: cell-based; conditions: Escherichia coli, UBMS905, 18 h, E. coli UBMS 90-5; read-out: MIC
S. marcescens FPOR 8733 = test: MIC, agar dilution; type: cell-based; conditions: Serratia marcescens, FPOR8733, 18 h
[1] = system: Ps. aeruginosa ATCC 27853; test: MIC, agar dilution; type: cell-based; conditions: Pseudomonas aeruginosa, ATCC27853, 18 h
Enterococcus 12201 = test: MIC, agar dilution; type: cell-based; conditions: Enterococcus, 12201, 18 h, Enterococcus 12201; read-out: MIC
E. faecalis ATCC 29212 = test: MIC, agar dilution; type: cell-based; conditions: Enterococcus faecalis, ATCC29212, 18 h
[2] = system: Staphylococcus aureus strain Smith (tetracycline sensitive); test: Acute lethal infection in mice, S. aureus Smith; type: in vivo; conditions: Staphylococcus aureus, 168 h, mice, S. aureus Smith (Sens), 7 day survival, read-out: ED50
[3] = system: Staphylococcus aureus, (methicillin-susceptible); test: MIC range, recent clinical and veterinary isolates; type: cell-based; conditions: 18 h; Staphylococcus aureus (methicillin-susceptible), [15] isolates; read-out: MIC Range
[4] = system: Staphylococcus Coagulase-negative, (methicillin-resistant); test: MIC range, recent clinical and veterinary isolates; type: cell-based; conditions: 18 h, [16] isolates
[5] = system: Staphylococcus Coagulase-negative, (methicillin-susceptible); test: MIC range, recent clinical and veterinary isolates; type: cell-based; conditions: 18 h, [14] isolates
Enterococcus faecalis = test: MIC range, recent clinical and veterinary isolates; type: cell-based; conditions: 18 h, [10] isolates, read-out: MIC Range
Enterococcus faecium = test: MIC range, recent clinical and veterinary isolates; type: cell-based; conditions: 18 h, [10] isolates, read-out: MIC Range
[6] = system: Enterococcus spp, (Vancomycin-resistant); test: MIC range, recent clinical and veterinary isolates; type: cell-based; conditions: 18 h, [8] isolates
Streptococcus pyogenes = test: MIC range, recent clinical and veterinary isolates; type: cell-based; conditions: 18 h, [10] isolates, read-out: MIC Range
Streptococcus agalactiae = test: MIC range, recent clinical and veterinary isolates; type: cell-based; conditions: 18 h, [10] isolates, read-out: MIC Range
Streptococcus pneumoniae = test: MIC range, recent clinical and veterinary isolates; type: cell-based; conditions: 18 h, [10] isolates, read-out: MIC Range
Listeria monocytogenes = test: MIC range, recent clinical and veterinary isolates; type: cell-based; conditions: 18 h, [8] isolates
Escherichia coli = test: MIC range, recent clinical and veterinary isolates; type: cell-based; conditions: 18 h, [30] isolates, read-out: MIC Range
[7] = system: Escherichia coli (Veterinary); test: MIC range, recent clinical and veterinary isolates; type: cell-based; conditions: 18 h, [15] isolates
Shigella spp. = test: MIC range, recent clinical and veterinary isolates; type: cell-based; conditions: 18 h, [14] isolates
Klebsiella pneumoniae = test: MIC range, recent clinical and veterinary isolates; type: cell-based; conditions: 18 h, [10] isolates
Klebsiella oxytoca = test: MIC range, recent clinical and veterinary isolates; type: cell-based; conditions: 18 h, [10] isolates, read-out: MIC Range
Citrobacter freundii = test: MIC range, recent clinical and veterinary isolates; type: cell-based; conditions: [10] isolates
Citrobacter diversus = test: MIC range, recent clinical and veterinary isolates; type: cell-based; conditions: Citrobacter koseri, 18 h; Citrobacter diversus, [10] isolates; read-out: MIC Range
Salmonella spp. = test: MIC range, recent clinical and veterinary isolates; type: cell-based; conditions: 18 h, [11] isolates
Serratia marcescens = test: MIC range, recent clinical and veterinary isolates; type: cell-based; conditions: 18 h, read-out: MIC Range
Enterobacter cloacae = test: MIC range, recent clinical and veterinary isolates; type: cell-based; conditions: 18 h, [10] isolates, read-out: MIC Range
Enterobacter aerogenes = test: MIC range, recent clinical and veterinary isolates; type: cell-based; conditions: Klebsiella aerogenes, 18 h; Enterobacter aerogenes, [10] isolates; read-out: MIC Range
Proteus mirabilis = test: MIC range, recent clinical and veterinary isolates; type: cell-based; conditions: 18 h, [26] isolates, read-out: MIC Range
Proteus vulgaris = test: MIC range, recent clinical and veterinary isolates; type: cell-based; conditions: 18 h, read-out: MIC Range
Morganella morganii = test: MIC range, recent clinical and veterinary isolates; type: cell-based; conditions: 18 h, [16] isolates
Pseudomonas aeruginosa = test: MIC range, recent clinical and veterinary isolates; type: cell-based; conditions: 18 h, [10] isolates, read-out: MIC Range
Xanthamonas maltophilia = test: MIC range, recent clinical and veterinary isolates; type: cell-based; conditions: 18 h; Xanthamonas maltophilia, [10] isolates; read-out: MIC Range
Moraxella catarrhalis = test: MIC range, recent clinical and veterinary isolates; type: cell-based; conditions: 18 h, [18] isolates, read-out: MIC Range
Neisseria gonorrhoeae = test: MIC range, recent clinical and veterinary isolates; type: cell-based; conditions: 18 h, [14] isolates
Haemophilus influenzae = test: MIC range, recent clinical and veterinary isolates; type: cell-based; conditions: 18 h, [15] isolates
[8] = system: Pasturella multocida (Veterinary); test: MIC range, recent clinical and veterinary isolates; type: cell-based; conditions: 18 h, [17] isolates
[9] = system: Bordetella bronchiseptica (Veterinary); test: MIC range, recent clinical and veterinary isolates; type: cell-based; conditions: 18 h; Bordetella bronchiseptica (Veterinary), [10] isolates; read-out: MIC Range
Bacteroides fragilis = test: MIC range, recent clinical and veterinary isolates; type: cell-based; conditions: [11] isolates
[10] = system: Bacteroides fragilis group; test: MIC range, recent clinical and veterinary isolates; type: cell-based; conditions: 18 h; Bacteroides fragilis group, [10] isolates; read-out: MIC Range
Bacteroides spp. = test: MIC range, recent clinical and veterinary isolates; type: cell-based; conditions: 18 h; Bacteroides spp., [9] isolates; read-out: MIC Range
Clostridium difficile = test: MIC range, recent clinical and veterinary isolates; type: cell-based; conditions: Clostridium difficile, [12] isolates
Anaerobic Gram(+)Cocci = test: MIC range, recent clinical and veterinary isolates; type: cell-based; conditions: 18 h, read-out: MIC Range
[11] = system: Escherichia coli UBMS 90-4 (Tet M); test: Acute lethal infection in mice, E. coli UBMS 90-4; conditions: in Mus musculus, iv, 168 h

CN(C)c1ccc(O)c2c1C[C@H]1C[C@H]3[C@H](N(C)C)C(O)=C(C(N)=O)C(=O)[C@@]3(O)C(O)=C1C2=O [U, Minocycline, reference compound]
MIC (E. coli J3272 Tet sens): 1 µg/mL (≈ 2.19 µM)
MIC (E. coli J3272 Tet C): 1 µg/mL (≈ 2.19 µM)
MIC (E. coli UBMS 90-5): 1 µg/mL (≈ 2.19 µM)
MIC (S. marcescens FPOR 8733): 4 µg/mL (≈ 8.74 µM)
MIC [1]: 8 µg/mL (≈ 17.5 µM)
MIC (Enterococcus 12201): 8 µg/mL (≈ 17.5 µM)
MIC (E. faecalis ATCC 29212): 2 µg/mL (≈ 4.37 µM)
ED50 ([2]; iv, Intraveneous): 0.37 mg/kg
ED50 ([2]; po, Oral): 0.74 mg/kg
MIC [3]: 0.03 to 0.12 µg/mL (≈ 0.0656 to 0.262 µM)
MIC [4]: 0.03 to 1 µg/mL (≈ 0.0656 to 2.19 µM)
MIC [5]: 0.015 to 0.25 µg/mL (≈ 0.0328 to 0.546 µM)
MIC (Enterococcus faecalis): 0.03 to 16 µg/mL (≈ 0.0656 to 35 µM)
MIC (Enterococcus faecium): 0.03 to 16 µg/mL (≈ 0.0656 to 35 µM)
MIC [6]: 0.03 to 16 µg/mL (≈ 0.0656 to 35 µM)
MIC (Streptococcus pyogenes): 0.03 to 2 µg/mL (≈ 0.0656 to 4.37 µM)
MIC (Streptococcus agalactiae): 0.12 to 16 µg/mL (≈ 0.262 to 35 µM)
MIC (Streptococcus pneumoniae): 0.06 to 0.5 µg/mL (≈ 0.131 to 1.09 µM)
MIC (Listeria monocytogenes): 0.015 to 0.03 µg/mL (≈ 0.0328 to 0.0656 µM)
MIC (Escherichia coli): 0.25 to 32 µg/mL (≈ 0.546 to 69.9 µM)
MIC [7]: 1 to 16 µg/mL (≈ 2.19 to 35 µM)
MIC (Shigella spp.): 0.25 to 8 µg/mL (≈ 0.546 to 17.5 µM)
MIC (Klebsiella pneumoniae): 0.5 to 8 µg/mL (≈ 1.09 to 17.5 µM)
MIC (Klebsiella oxytoca): 0.5 to 4 µg/mL (≈ 1.09 to 8.74 µM)
MIC Range (Citrobacter freundii): 0.03 to 32 µg/mL
MIC (Citrobacter diversus): 0.25 to 4 µg/mL (≈ 0.546 to 8.74 µM)
MIC (Salmonella spp.): 0.5 to 16 µg/mL (≈ 1.09 to 35 µM)
MIC (Serratia marcescens): 1 to 8 µg/mL (≈ 2.19 to 17.5 µM)
MIC (Enterobacter cloacae): 0.25 to 4 µg/mL (≈ 0.546 to 8.74 µM)
MIC (Enterobacter aerogenes): 0.5 to 1 µg/mL (≈ 1.09 to 2.19 µM)
MIC (Proteus mirabilis): 1 to 32 µg/mL (≈ 2.19 to 69.9 µM)
MIC (Proteus vulgaris): 0.5 to 16 µg/mL (≈ 1.09 to 35 µM)
MIC (Morganella morganii): 0.25 to 32 µg/mL (≈ 0.546 to 69.9 µM)
MIC (Pseudomonas aeruginosa): 1 to 16 µg/mL (≈ 2.19 to 35 µM)
MIC (Xanthamonas maltophilia): 0.12 to 1 µg/mL (≈ 0.262 to 2.19 µM)
MIC (Moraxella catarrhalis): 0.03 to 0.12 µg/mL (≈ 0.0656 to 0.262 µM)
MIC (Neisseria gonorrhoeae): 0.5 to 64 µg/mL (≈ 1.09 to 140 µM)
MIC (Haemophilus influenzae): 0.5 to 2 µg/mL (≈ 1.09 to 4.37 µM)
MIC [8]: 0.015 to 4 µg/mL (≈ 0.0328 to 8.74 µM)
MIC [9]: 0.06 to 0.12 µg/mL (≈ 0.131 to 0.262 µM)
MIC Range (Bacteroides fragilis): <0.008 to 16 µg/mL
MIC [10]: 0.008 to 4 µg/mL (≈ 0.0175 to 8.74 µM)
MIC (Bacteroides spp.): 0.03 to 16 µg/mL (≈ 0.0656 to 35 µM)
MIC Range (Clostridium difficile): 0.015 to 16 µg/mL
MIC (Anaerobic Gram(+)Cocci): 0.05 to 8 µg/mL (≈ 0.109 to 17.5 µM)
ED50 [11]: > 32 mg/kg
